Assays:
[1] = test system: HIV-1 IIIB; experiment: HIV-1 infection of primary CD4+ T cells pre-treated with PEP005 (RT-qPCR, p24 ELISA); assay type: cell-based; conditions: pre-treatment with 12 or 24 nM PEP005; 3 and 5 days after HIV infection
Protocol: (§1) FIG. 12: PEP005 down-modulates the expression of CD4, CCR5 and CXCR4 and inhibits HIV infection of primary CD4+ T cells ex vivo. (A) PEP005 inhibits expression of HIV receptors/co-receptors. […] The expression of CD4, CCR5 and CXCR4 genes was evaluated using RT-qPCR after normalizing for GAPDH. (B) and (C) PEP005 inhibits HIV infection of primary CD4+ T cells ex vivo. Primary CD4+ T cells were pre-treated with 12 or 24 nM PEP005 overnight and infected with the virus. The CD4+ T cells were incubated for 5 days without PEP005. The cells were collected for RT-qPCR targeting the HIV LTR region (B), or supernatants were collected for p24 ELISA (C). *, p<0.05; **, p<0.01.
Primary CD4+ T cells were isolated from peripheral blood samples of healthy HIV-negative donors and were pre-treated with PEP005 overnight. The CD4+ T cells were infected with HIV-1 (HIV-1 IIIB expanded in Jurkat T cells, 100 ng p24-gag) through spinoculation as described previously. Following an exposure of 24 hrs to HIV, the cells were washed. Cell supernatants were collected and HIV p24 levels were measured by ELISA. The cells were also collected for RNA extraction and measurement of viral transcripts by RT-qPCR.

[2] = test system: primary CD4+ T cells; experiment: Pro-inflammatory cytokine expression in primary CD4+ T cells (RT-qPCR); assay type: cell-based, human; conditions: CD4+ T cells of healthy HIV-negative donors, 6 or 12 nM PEP005, 24 or 72 hours
Protocol: CD4+ T cells were isolated from healthy donors and treated with 6 or 12 nM of PEP005 for 24 or 72 hours, and the relative expression of TNF-α (A), IFN-γ (B), IL-2 (C), and IL-6 (D) was quantified using RT-qPCR and normalized to GAPDH internal control.

[3] = test system: NF-κB/p65 binding to HIV LTR; experiment: ChIP-qPCR of NF-κB/p65 binding to the HIV LTR in J-Lat A1 cells; assay type: cell-based; conditions: 12 nM PEP005
Protocol: FIG. 4: PEP005-induced HIV reactivation is mediated through PKCδ/θ-IκBα/ε-NF-κB signaling. (A) PEP005-induced HIV reactivation is suppressed by inhibition of the PKCδ/θ. J-Lat A1 cells were treated with 6 nM of PEP005 in the presence of 1, 2 or 5 μM of PKC inhibitor (PKCθ/δ inhibitor; Milipore/Calbiochem (539649)) and evaluated for GFP expression by RT-qPCR. (B) NF-κB inhibition partially suppresses PEP005-induced HIV reactivation in J-Lat A1 cells. J-Lat A1 cells were treated with 6 nM of PEP005 in the presence of 2.5 μM Bay 11-7082, an NF-κB inhibitor, and were evaluated for GFP expression by RT-qPCR. (C) J-Lat A1 cells were treated with PEP005 or alternatively with PKC inhibitor alone or in the presence of PEP005 and the relative binding of NF-κB to the HIV LTR was determined using ChIP-qPCR.
Chromatin immunoprecipitation (ChIP): ChIP assay was performed as previously described. Briefly, 1×10^6 J-Lat A1 cells were incubated with PEP005, or PKCδ/θ inhibitor (PKGδi, Millipore/Calbiochem), fixed in 1% formaldehyde then resuspended in lysis buffer containing 1% SDS, 10 mM EDTA, 50 mM Tris-HCl, pH 8.1 (ChIP Assay Kit, Millipore) and protease inhibitor cocktail (Sigma-Aldrich). […] DNA was extracted (Qiagen PCR purification kit) and quantitative real-time PCR was performed using Agilent Brilliant Ultra-Fast SYBR Green QPCR reagent using the 7500 real-time PCR System. […]

[4] = test system: J-Lat A1 cells, U1 cells, primary CD4+ T cells; experiment: Cell viability by MTT assay; assay type: cell-based; conditions: J-Lat A1 and U1 cell lines, 12 nM PEP005, 24 hours
Protocol: (§2) FIG. 7: PEP005 causes minimal cytotoxicity and T cell proliferation. To evaluate the impact of PEP005 on the cell viability, U1 cells (A), J-Lat A1 cells (B) and CD4+ T cells (C) were treated with 12 nM of PEP005 for 24 hours, the cell viability was examined with the MTT assay and the S-phase cell cycle progression was evaluated after BrdU incorporation using BrdU ELISA. 25-50 μM Etoposide or 100-150 μM Doxorubicin (Doxo) served as positive controls for MTT and BrdU assays respectively. Statistical analysis was performed in comparison with controls. **, p<0.01.
(§3) Cells were placed in 96-well plates and incubated for 24 or 72 h hrs with compounds. Cell viability was measured using MTT assay (Roche Laboratories), and cell proliferation/S-phase progression was determined by using BrdU ELISA kit (Cell signaling, #1863).

[5] = systemic (intravenous), mini pig and rat model; cited from earlier work
[6] = test system: CD4, CCR5 and CXCR4; experiment: Expression of HIV receptors/co-receptors in primary CD4+ T cells (RT-qPCR); assay type: cell-based, human; conditions: primary CD4+ T cells of healthy HIV-negative donors, 12 nM PEP005, 72 hours
Protocol: as §1
Recent studies have shown that Prostratin and analogs down-modulate HIV receptor/co-receptor expression, which could have protective effects against the viral infection. Conversely, SAHA, known to induce latent HIV expression in HIV infected individuals receiving ART, was reported to increase susceptibility of naive CD4+ T cells to HIV acquisition. […] Primary CD4+ T cells from peripheral blood samples of healthy HIV-negative donors were treated with 12 nM PEP005 and evaluated for the expression levels of CD4, CCR5, and CCXR4 using RT-qPCR. […] The virological outcome in the CD4+ T cell cultures in vitro was monitored for 5 days.

[7] = test system: J-Lat A1 cells, U1 cells, primary CD4+ T cells; experiment: Cell proliferation / S-phase progression by BrdU ELISA; assay type: cell-based; conditions: U1 cells or primary CD4+ T cells, 12 nM PEP005, 24 hours
Protocol: as §2, §3

C/C=C(/C)C(=O)O[C@H]1C(C)=C[C@]23C(=O)[C@@H](C=C(CO)[C@@H](O)[C@]12O)[C@H]1[C@@H](C[C@H]3C)C1(C)C [PEP005, (1aR,2S,5R,5aS,6S,8aS,9R,10aR)-5,5a-Dihydroxy-4-(hydroxymethyl)-1,1,7,9-tetramethyl-11-oxo-1a,2,5,5a,6,9,10,10a-octahydro-1H-2,8a-methanocyclopenta[a]cyclpropa[e][10]annulen-6-yl (2Z)-2-methylbut-2-enoate]
HIV gene expression after HIV infection (RT-qPCR, HIV LTR region) [1]: dampened HIV gene expression
viral replication after HIV infection (p24 ELISA) [1]: decreased the level of viral replication
expression of TNF-α, IFN-γ, IL-2, and IL-6 [2]: no significant increase
expression of TNF-α ([2]; not statistically significant): tendency towards an up-regulation
increase in NF-κB/p65 binding to HIV LTR region [3]: 6 fold
cellular toxicity (MTT) [4]: minimal levels of cellular toxicity
maximum nonlethal dose [5]: > 0.073 mg/kg
expression of CD4, CCR5, and CXCR4 [6]: significant reduction
proportion of cells in S-phase (BrdU) [7]: did not induce any significant increase

From patent US10376486B2, “Compositions and methods for reactivating latent viral infections” (priority 2014, dated 2019)
